# From patent US9663463B2, “3-azabicyclo[3.1.0]hexane derivative and use thereof for medical purpose” (priority 2013, dated 2017)
# Where a name gives a salt, the structure may show the parent alone.
# What was measured:
# [1] = target: human μ-opioid receptor (Homo sapiens (Human), UniProt P35372); experiment: Antagonist activity test using [35S]-GTPγS bond as index using human μ-opioid receptor-expressing cell membrane; format: biochemical
# Description: Cells in which a human μ-opioid receptor had been highly expressed was purchased from ChanTest (Cleveland). The cells were cultured in a carbon dioxide gas culturing apparatus by using a Ham's F12 culture medium (Invitrogen) containing 10% of fetal bovine blood serum, 1% of non-essential amino acids, 0.4 mg/ml of G418, 100 U/ml of penicillin and 100 μg/ml of streptomycin. The cultured cells were suspended by using a 0.25% trypsin 1 mM EDTA solution, the suspension was collected by using phosphate-buffered saline and centrifuged at 4° C. and 1,000 rpm for 10 minute to remove the supernatant, whereby a cell mass was obtained. […] Similar homogenization and centrifugation operations were repeated on the sediment, a homogenized buffer was added again to the obtained sediment, and the resultant was similarly homogenized to give a membrane fraction solution. The obtained membrane fraction solution was dispensed, rapidly frozen and stored under freezing at −70° C. or less until use. Furthermore, the protein concentration of the obtained membrane fraction solution was measured by using a BCA protein Assay Kit (Cat. 23227, Pierce) according to the protocol attached to the kit.
# The cell membrane fraction solution in which the human μ-opioid receptor had expressed, which had been stored under freezing, was melted, a GTP assay buffer (100 mM NaCl, 5 mM MgCl2, 1 mM EDTA-containing 50 mM Hepes (pH 7.4)) was added thereto, and the resultant was homogenized repeatedly twice by using a Polytron homogenizer (SMT Multi Disperser PB95) under ice cooling at 12,000 rpm for 20 seconds to give a homogeneous solution, and the homogeneous solution was diluted to 0.036 mg/ml with a GTP assay buffer containing 18.2 μM of GDP (final concentration: […]). The dilution was incubated for 15 minutes or more under ice cooling until the reaction was initiated. […] [^35S]-GTPγS (NEG030X, Perkinelmer) was diluted with a GTP assay buffer so as to be 0.616 nM (final concentration: 0.08 nM). The resultant was diluted with a GTP assay buffer so as to be 200 nM (final concentration: 10 nM) by using [D-Ala^2, N-Me-Phe^4, Gly^5-ol]-enkephalinacetate (DAMGO, Sigma) as a μ-opioid receptor agonist. WGA Coated PVT SPA Beads (RPNQ0001, Perkinelmer) were added so as to be 20 mg/ml with a GTP assay buffer, and the resultant was suspended (final concentration: 1 mg/well). 4 μL/well of a test substance solution, 10 μL/well of a DAMGO solution, 26 μL/well of a [^35S]-GTPγS solution, […] of a suspension liquid of WGA Coated PVT SPA Beads, and 110 μL/well of the membrane fraction solution were added to a 96 well plate (1450-401, Perkinelmer), the top part of the plate was sealed, and a reaction was performed at 30° C. for 60 minutes under stirring with a plate shaker. For each measurement plate, a well to which DMSO had been added instead of the test substance, and a well to which DMSO had been added instead of the test substance and a GTP assay buffer had been added instead of the DAMGO solution were prepared. Furthermore, after the reaction was completed, the reactant was centrifuged at room temperature and 1,000 rpm for 3 minutes, and the radioactivity was measured by a microplate scintillation luminescence counter (Perkinelmer).
# The IC50 value of the test substance was calculated by using Graphpad Prism 5.
# [2] = Plasma concentration of test substance at ED50 value (mice, LC/MS/MS); format: in vivo; conditions: at the ED50 value, at time of morphine administration, oral, linear regression from two doses
# Description: The concentration of the test substances in blood plasma was confirmed by using mice of the same week-old for the same dose as that used in the evaluation of the anti-pruritic effect. The test substance was administered by forced oral administration of an administration vehicle prepared in a similar manner to that in the evaluation of the anti-pruritic effect under a non-fasting condition. The blood samples were collected from the orbital venous plexus, within from 15 minutes after the administration of the test substance to after 180 minutes at the maximum, for multiple times including the timing at which the morphine solution was intracisternally administered, under inhalation anesthesia with diethyl ether or isoflurane using a heparin-treated hematocrit tubes. The collected blood samples were immediately ice-cooled and centrifuged at 1,800 g for 15 minutes at 4° C., and the plasma fractions were transferred and stored under freezing at −30° C. or less until measurement.
# The concentrations of the test substances in plasma were measured using LC/MS/MS. Furthermore, as the measurement samples for LC/MS/MS, the supernatants obtained by adding an internal standard substance and acetonitrile in an amount within a range from 5-fold to 10-fold of the amount of the plasma to the collected plasma samples, and removing proteins therefrom, was used.
# [3] = tested on: pruritus mice model to which morphine had been intracisternally administered; experiment: Anti-pruritic effect in pruritus mice model to which morphine had been intracisternally administered; format: in vivo; conditions: Mus musculus; oral administration, male ICR mice, inhibition of morphine-induced scratching behavior; read-out: ED50
# Description: As experimental animals, male ICR (Cr1j: CD1 (ICR): Charles River Japan) mice were used at 5 to 6-week old. The mice were placed in an acrylic cage (colorless and transparent, W 13.5 cm×D 9.5 cm×H 40 cm) for observing scratching behavior for 30 minutes or more to thereby allow the mice to get used to the observation environment, and the test substance solutions were forcedly orally administered to the test substance-administered groups. In addition, an administration vehicle was forcedly orally administered to the normal control group and the pathological control group. A necessary amount of the test substance was weighed and formed into a micropowder in an agate mortar, an administration vehicle, a 0.5 w/v % methyl cellulose 400 solution (Wako Pure Chemical Industries Ltd.) was added little by little, and preparation was performed by suspending or dissolving so as to give an intended concentration (from 0.025 to 3 mg/ml). The test doses were preset to suitable doses in the range in which the maximum dose is 30 mg/10 ml/kg.
# Based on 30 minutes after the forced oral administration of the test substance as a criterion, the time for the intracisternal administration of morphine was suitably set up to 120 minutes after at the maximum, with consideration for the times of maximum plasma concentration of the respective test substances, in the case when the in vivo pharmacokinetics of the test substance had been confirmed in advance. Furthermore, saline was intracisternally administered to the normal control group, and the above-mentioned morphine solution was intracisternally administered to the pathogenic control group, so as to be 5 μL/site at the same time as that of the test substance group after the forced oral administration of the administration vehicle in either case.
# The behavior of each mouse within 60 minutes from the intracisternal administration of the morphine solution or saline was recorded by a digital video camera that was installed immediately above the acrylic cage, the images were stored in a digital video recorder, and the number of frequency of the scratching behavior was measured. The number of frequency of the scratching behavior was measured with deeming a behavior in which the mouse raised its hindlimb, scratched the facial surface and the peripheral sites thereof, and got the hindlimb off from the body within 30 minutes from after the intracisternal administration of the morphine or saline as one time.
# The anti-pruritic effect of each test substance was obtained as follows. As an inhibition ratio against the number of frequency of the scratching behavior on the pathological control group, the inhibition ratio (%) of the respective individuals and the average value thereof were calculated from the following formula, and an ED50 value was calculated based on the obtained inhibition ratio. Inhibition ratio of each individual (%)={1−(A−Vehicle)/(Morphine−Vehicle)}×100 Morphine: the average of the scratching number of the pathological control group Vehicle: the average of the scratching number of the normal control group A: the scratching number of each individual in the test substance-administered group
# [4] = in vitro; format: in vitro ADME, mice; conditions: Crl:CD-1 (ICR), mouse, pH 7.4; murine serum, equilibrium dialysis, 37° C., 5 to 6 hours; read-out: Protein binding rate (converted)
# Description: The protein binding rate was determined by equilibrium dialysis method using the RED Device (8K MWCO, Rapid Equilibrium Dialysis Device, Thermo Scientific). The test substances that had been dissolved in DMSO were added to the serum that was collected from Crl: CD-1 (ICR) mice fasted overnight, so that the final concentration of DMSO became 1% (v/v). The serum to which the test substance had been added was added to the inner side of the dialysis membrane of the RED Device, and PBS (phosphate buffer saline, pH 7.4) containing 0.01% (v/v) Tween 80 was added to the outside in accordance with the method for using the RED Device and incubated at 37° C. for 5 to 6 hours with ellipsoidal shaking at 100 rpm so that the concentration of the unbound test substance in the serum and the concentration of the test substance in the PBS reached equilibrium. After the incubation was completed, the respective solutions were collected and stored under freezing at −60° C. or less as measurement samples. The proteins were removed from the measurement sample by adding acetonitrile in an amount of 5-fold or more of the amount of the internal standard substance and the serum sample, and the supernatants were measured by LC/MS/MS (liquid chromatograph—triple quadrupole mass spectrometer). The serum samples were measured after suitably diluting with distilled water as necessary.
# A: the concentration of the test substance in the PBS sample
# B: the concentration of the test substance in the serum sample
# [5] = target: hERG current (Homo sapiens (Human), UniProt Q12809); experiment: cell-based
# Description: A: the suppression rate (%) of the test substance in each cell
# B: the average suppression rate (%) of the vehicle control group
# Chain of hERG current (Q12809 whole entry): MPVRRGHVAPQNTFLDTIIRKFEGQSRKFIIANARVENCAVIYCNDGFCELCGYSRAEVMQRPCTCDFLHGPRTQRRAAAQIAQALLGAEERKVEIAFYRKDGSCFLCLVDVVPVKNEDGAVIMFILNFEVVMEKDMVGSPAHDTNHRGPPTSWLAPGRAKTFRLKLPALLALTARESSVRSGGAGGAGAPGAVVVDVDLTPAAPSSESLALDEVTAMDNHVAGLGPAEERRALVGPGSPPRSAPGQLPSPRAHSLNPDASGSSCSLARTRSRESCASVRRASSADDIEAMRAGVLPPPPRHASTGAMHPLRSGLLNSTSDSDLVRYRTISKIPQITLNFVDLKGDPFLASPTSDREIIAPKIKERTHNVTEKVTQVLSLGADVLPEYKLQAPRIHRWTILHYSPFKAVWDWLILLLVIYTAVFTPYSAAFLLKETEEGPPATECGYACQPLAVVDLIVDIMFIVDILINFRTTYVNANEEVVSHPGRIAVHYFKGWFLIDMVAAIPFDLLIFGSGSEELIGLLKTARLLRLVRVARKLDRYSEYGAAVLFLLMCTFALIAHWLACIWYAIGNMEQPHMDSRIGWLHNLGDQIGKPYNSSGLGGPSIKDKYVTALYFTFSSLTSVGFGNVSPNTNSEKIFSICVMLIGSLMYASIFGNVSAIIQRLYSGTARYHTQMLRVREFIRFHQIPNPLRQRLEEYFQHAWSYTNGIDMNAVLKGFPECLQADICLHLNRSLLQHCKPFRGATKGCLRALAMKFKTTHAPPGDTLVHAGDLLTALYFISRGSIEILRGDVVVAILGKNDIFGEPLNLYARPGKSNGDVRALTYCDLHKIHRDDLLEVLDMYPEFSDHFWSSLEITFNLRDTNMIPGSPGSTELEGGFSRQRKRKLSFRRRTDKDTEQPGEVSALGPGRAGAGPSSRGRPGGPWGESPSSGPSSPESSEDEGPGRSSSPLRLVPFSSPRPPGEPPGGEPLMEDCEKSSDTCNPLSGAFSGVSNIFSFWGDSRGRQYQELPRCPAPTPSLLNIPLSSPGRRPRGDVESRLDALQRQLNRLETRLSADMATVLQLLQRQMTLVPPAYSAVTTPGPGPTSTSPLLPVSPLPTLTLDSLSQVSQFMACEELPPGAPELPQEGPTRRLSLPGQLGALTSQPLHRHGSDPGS
Structure (SMILES),IC50 [1],Plasma concentration of test substance [2],ED50 [3],fraction unbound [4],IC50 [5]
"CC[C@]1(c2cc(NS(=O)(=O)C3CC3)ccc2F)[C@@H]2CN(CC3(OC)Cc4ccccc4C3)C[C@@H]21 [Example 11-(b), N-(3-{(1R,5S,6r)-6-ethyl-3-[(2-methoxy-2,3-dihydro-1H-inden-2-yl)methyl]-3-azabicyclo[3.1.0]hexan-6-yl}-4-fluorophenyl)cyclopropanesulfonamide hydrochloride]",2.8 nM,,,,
"CCOC1(CN2C[C@@H]3[C@H](C2)[C@@]3(CC)c2cccc(NS(=O)(=O)C3CC3)c2)Cc2ccccc2C1 [Example 13-(b), N-(3-{(1R,5S,6r)-3-[(2-ethoxy-2,3-dihydro-1H-inden-2-yl)methyl]-6-ethyl-3-azabicyclo[3.1.0]hexan-6-yl}phenyl)cyclopropanesulfonamide hydrochloride]",4.1 nM,71.9 nM,2.4 mg/kg,,
"CC[C@]1(c2cccc(NS(=O)(=O)C3CC3)c2)[C@@H]2CN(CC3(O)Cc4cc(F)c(F)cc4C3)C[C@@H]21 [Example 20-(a), N-(3-{(1R,5S,6r)-3-[(5,6-difluoro-2-hydroxy-2,3-dihydro-1H-inden-2-yl)methyl]-6-ethyl-3-azabicyclo[3.1.0]hexan-6-yl}phenyl)cyclopropanesulfonamide]",4.1 nM,,,0.006,
"CC[C@]1(c2cccc(NS(=O)(=O)C3CC3)c2)[C@@H]2CN(CC3(O)Cc4ccccc4C3)C[C@@H]21 [Example 1-(b), N-(3-{(1R,5S,6r)-6-ethyl-3-[(2-hydroxy-2,3-dihydro-1H-inden-2-yl)methyl]-3-azabicyclo[3.1.0]hexan-6-yl}phenyl)cyclopropanesulfonamide hydrochloride]",1.5 nM,,,,
"CCOC1(CCCN2C[C@@H]3[C@H](C2)[C@@]3(CC)c2cccc(NS(=O)(=O)C3CC3)c2)CCC(F)(F)CC1 [Example 14-(b), N-(3-{(1R,5S,6r)-3-[3-(1-ethoxy-4,4-difluorocyclohexyl)propyl]-6-ethyl-3-azabicyclo[3.1.0]hexan-6-yl}phenyl)cyclopropanesulfonamide hydrochloride]",1.3 nM,,,,
"CC[C@]1(c2cc(F)cc(NS(=O)(=O)C3CC3)c2)[C@@H]2CN(CC3(OC)Cc4ccccc4C3)C[C@@H]21 [Example 12-(b), N-(3-{(1R,5S,6r)-6-ethyl-3-[(2-methoxy-2,3-dihydro-1H-inden-2-yl)methyl]-3-azabicyclo[3.1.0]hexan-6-yl}-5-fluorophenyl)cyclopropanesulfonamide hydrochloride]",12 nM,193 nM,3.2 mg/kg,0.002,
"CC[C@]1(c2cc(NS(=O)(=O)C3CC3)ccc2F)[C@@H]2CN(CCCN3CCC(F)(F)C3)C[C@@H]21 [Example 9-(b), N-(3-{(1R,5S,6r)-3-[3-(3,3-difluoropyrrolidin-1-yl)propyl]-6-ethyl-3-azabicyclo[3.1.0]hexan-6-yl}-4-fluorophenyl)cyclopropanesulfonamide hydrochloride]",2.5 nM,,,0.173,
"C=C[C@]1(c2cccc(NS(=O)(=O)C3CC3)c2)[C@@H]2CN(CC3(O)Cc4ccccc4C3)C[C@@H]21 [Example 19-(b), N-(3-{(1R,5S,6r)-3-[(2-hydroxy-2,3-dihydro-1H-inden-2-yl)methyl]-6-vinyl-3-azabicyclo[3.1.0]hexan-6-yl}phenyl)cyclopropanesulfonamide hydrochloride]",4.5 nM,,,0.009,
"COC1(CN2C[C@@H]3[C@H](C2)[C@@]3(C)c2cccc(NS(=O)(=O)C3CC3)c2)Cc2ccccc2C1 [Example 18-(b), N-(3-{(1R,5S,6r)-3-[(2-methoxy-2,3-dihydro-1H-inden-2-yl)methyl]-6-methyl-3-azabicyclo[3.1.0]hexan-6-yl}phenyl)cyclopropanesulfonamide hydrochloride]",16 nM,,,0.007,400 nM
